Here are results for two compounds from patent US20080057531A1, “SYSTEMS, KITS, AND METHODS FOR DETECTING CARIOGENIC BACTERIA AND ASSESSING RISK OF DENTAL CARIES” (Oregon Health and Science University, priority 2006, published 2008).

Test [1] concerns S. mutans in saliva. Kind of test: bacitracin selection for S. mutans in pediatric saliva samples incubated in BHI media. The settings on record: four hours of bacitracin treatment, 7% at time 0, FIG. 5. Format: cell-based, Streptococcus mutans. An excerpt: FIG. 5 illustrates the bacitracin-based selection for the highly cariogenic S. mutans species in the presence of non-mutans streptococci.
This example describes a clinical study, examining the application of bacitracin selection (and sucrose growth accelerant) on oral micro-organisms found in dental plaque and saliva. This study examines up to 50 patients, with 3-4 plaque specimens and one saliva specimen per patient, and assesses the correlation between ATP content (measured by CariScreen meter and Veritas luminometer), wet weight of plaque specimens, total protein measurement, and viable bacterial numbers (total bacteria, total oral streptococci, Streptococcus mutans, and total lactobacilli as assessed with the use of plating on blood agar, mitis-salivarius agar, mitis-salivarius agar supplemented with bacitracin ([…] w/v), and Rogasa agar, respectively). […] With continued reference to FIG. 5, with four hours of bacitracin treatment the percentage of S. mutans in saliva went from 7% at time 0 to 75%. With reference to FIG. 6, a subject's saliva was added to BHI media±bacitracin (0.5 units/ml), and then incubated at 37° C. in a 5% carbon dioxide atmosphere. At times 0, 1, 2, and 4 hours samples were measured for ATP-driven bioluminescence and plated onto blood agar plates to measure total bacteria numbers. […]

For test [2], the system named is cariogenic S. mutans. The test can be described thus: bacitracin selection in suspended solution format, growth measured by ATP luminescence. Format: cell-based, Streptococcus mutans. Conditions: 0.5-1.0 U/ml bacitracin in BHI medium, FIG. 3. An excerpt:
(§1) FIG. 3 illustrates the relationship between bacitracin concentration and effect on growth of several oral streptococci species as measured by ATP luminescence.
(§2) With reference to FIG. 1, the linear portion of the curves in each graph illustrates a range of measurements that can be used to accurately correlate ATP concentration and relative light units. FIG. 2 illustrates that the relationship of ATP content and viable cell number is linear during exponential phase of growth. However, ATP content becomes diminished during transition from exponential phase to […] of growth. […] Cultures tested include Streptococcus mutans ATCC 700610, Streptococcus mutans A TCC 25175, Streptococcus sanguis and Streptococcus sobrinus. Overnight cultures were prepared using BHI medium and then inoculum was transferred to fresh BHI medium in the presence (0.5 U/ml-10 U/ml) or absence of bacitracin. […] Thus, the presence of sucrose may represent a further improvement of the current CariScreen device, by 1) extending the effectiveness of bacitracin selection and by 2) increasing the likelihood or allowing all oral microorganisms to remain in an exponential phase of growth, which based on FIG. 2, represents an accurate determinant of bacterial number as measured by ATP.

Test [3] concerns S. sobrinus. The test is described as above. Format: cell-based, Streptococcus sobrinus. The settings on record: 0.5-1.0 U/ml bacitracin in BHI medium, FIG. 3.
Description: as §1, §2

The subject of test [4] is non-cariogenic streptococci, such as S. sanguis. Described as above. Format: cell-based, Streptococcus sanguis. The settings on record: 0.5-1.0 U/ml bacitracin in BHI medium, FIG. 3.
Description: as §1, §2

The subject of test [5] is S. mutans. The test can be described thus: sucrose effect on adherence of bacteria in a biofilm on the culture vessel. Format: cell-based, Streptococcus mutans. The settings on record: sucrose especially at 0.5-1%, FIG. 4.
Description: (§3) FIG. 4 illustrates the effect of sucrose as a potential accelerant of growth of four different oral streptococci, increase of four different streptococci strains, including measurement of adherent bacteria, in response to varying sucrose concentrations.
as §2

Test [6] relates to oral streptococci, including cariogenic S. mutans and non-cariogenic S. salivarius and S. sanguis. Kind of test: sucrose as accelerant of growth of oral streptococci, suspended bacteria. Format: cell-based. The settings on record: varying sucrose concentrations, FIG. 4.
Description: as §3, §2

Where a SMILES comes first, the peptide text is derived from it. Bridges are numbered along the chain shown (N, C = ends). [ ]: non-standard residue; d: D form. The star is where a group is joined. Ileψ(thiazoline)Cys = CC[C@H](C)[C@H](N)C1=N[C@H](C(=O)*)CS1; dOrn = NCCC[C@@H](N)C(=O)O

Take `CC[C@H](C)[C@H](N)C1=N[C@H](C(=O)N[C@@H](CC(C)C)C(=O)N[C@H](CCC(=O)O)C(=O)N[C@H](C(=O)N[C@H]2CCCCNC(=O)[C@H](CC(N)=O)NC(=O)[C@@H](CC(=O)O)NC(=O)[C@H](Cc3cnc[nH]3)NC(=O)[C@@H](Cc3ccccc3)NC(=O)[C@H]([C@@H](C)CC)NC(=O)[C@@H](CCCN)NC2=O)[C@@H](C)CC)CS1` [bacitracin] ({Ileψ(thiazoline)Cys}-L[dE]IK[dOrn]I[dF]H[dD]N; lactam 4-C): the “percentage of S. mutans in saliva” value in test [1] came out at 75%. Besides, the effect on growth entry in test [2] was “allows considerable break-through of growth”; in test [3], “allows considerable break-through of growth”; in test [4], “greatly inhibit”.
With `OC[C@H]1O[C@@](CO)(O[C@H]2O[C@H](CO)[C@@H](O)[C@H](O)[C@H]2O)[C@@H](O)[C@@H]1O` [sucrose], the “effect on adherence in a biofilm coating the plastic surface of the culture vessel” value in test [5] is “promote the increased adherance”. The “effect on growth phase and yield” value in test [6] is “extend the exponential phase of growth and promote increased yields at saturation”.
